Results published in patent US8192962B2, “Processes for detecting toxic substances” (Daikin Industries, Ltd., priority 2001, dated 2012).

System: DNA repair protein genes
Test: DNA chip mRNA expression in yeast, DNA repair protein genes (Table 3)
Format: cell-based, Saccharomyces cerevisiae S288C
Conditions: incubated two hours, concentrations as in the 1st table
In short: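 Measured as treated-to-untreated fluorescence ratio on a full-genome yeast DNA chip. Cells (S288C, YPD, 25° C.) were exposed in log phase for two hours to one chemical, dosed to curb growth without killing.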

[Cl][Cd][Cl] [(2), CdCl2]
The level of expressed mRNA in the presence of chemical substance/The level of expressed mRNA in the absence of chemical substance (yeast gene YAL015C): 1.1 | The level of expressed mRNA in the presence of chemical substance/The level of expressed mRNA in the absence of chemical substance (yeast gene YAR007C): 1.9 | The level of expressed mRNA in the presence of chemical substance/The level of expressed mRNA in the absence of chemical substance (yeast gene YBL019W): 9.1 | The level of expressed mRNA in the presence of chemical substance/The level of expressed mRNA in the absence of chemical substance (yeast gene YBR073W): 1.0 | The level of expressed mRNA in the presence of chemical substance/The level of expressed mRNA in the absence of chemical substance (yeast gene YBR272C): 1.8 | The level of expressed mRNA in the presence of chemical substance/The level of expressed mRNA in the absence of chemical substance (yeast gene YCR014C): 1.0 | The level of expressed mRNA in the presence of chemical substance/The level of expressed mRNA in the absence of chemical substance (yeast gene YDL017W): 2.3 | The level of expressed mRNA in the presence of chemical substance/The level of expressed mRNA in the absence of chemical substance (yeast gene YDL059C): 5.1 | The level of expressed mRNA in the presence of chemical substance/The level of expressed mRNA in the absence of chemical substance (yeast gene YDL200C): 2.0 | The level of expressed mRNA in the presence of chemical substance/The level of expressed mRNA in the absence of chemical substance (yeast gene YDR054C): 1.0 | The level of expressed mRNA in the presence of chemical substance/The level of expressed mRNA in the absence of chemical substance (yeast gene YDR369C): 1.1 | The level of expressed mRNA in the presence of chemical substance/The level of expressed mRNA in the absence of chemical substance (yeast gene YEL019C): 1.6 | The level of expressed mRNA in the presence of chemical substance/The level of expressed mRNA in the absence of chemical substance (yeast gene YEL037C): 2.0 | The level of expressed mRNA in the presence of chemical substance/The level of expressed mRNA in the absence of chemical substance (yeast gene YER162C): 1.2 | The level of expressed mRNA in the presence of chemical substance/The level of expressed mRNA in the absence of chemical substance (yeast gene YFL014W): 5.1 | The level of expressed mRNA in the presence of chemical substance/The level of expressed mRNA in the absence of chemical substance (yeast gene YGL058W): 1.1 | The level of expressed mRNA in the presence of chemical substance/The level of expressed mRNA in the absence of chemical substance (yeast gene YGL091C): 1.8 | The level of expressed mRNA in the presence of chemical substance/The level of expressed mRNA in the absence of chemical substance (yeast gene YGL127C): 1.9 | The level of expressed mRNA in the presence of chemical substance/The level of expressed mRNA in the absence of chemical substance (yeast gene YGL163C): 0.8 | The level of expressed mRNA in the presence of chemical substance/The level of expressed mRNA in the absence of chemical substance (yeast gene YGL249W): 0.8 | The level of expressed mRNA in the presence of chemical substance/The level of expressed mRNA in the absence of chemical substance (yeast gene YGR180C): 1.1 | The level of expressed mRNA in the presence of chemical substance/The level of expressed mRNA in the absence of chemical substance (yeast gene YGR231C): 1.2 | The level of expressed mRNA in the presence of chemical substance/The level of expressed mRNA in the absence of chemical substance (yeast gene YGR258C): 0.9 | The level of expressed mRNA in the presence of chemical substance/The level of expressed mRNA in the absence of chemical substance (yeast gene YHR164C): 1.3 | The level of expressed mRNA in the presence of chemical substance/The level of expressed mRNA in the absence of chemical substance (yeast gene YIL036W): 1.3 | The level of expressed mRNA in the presence of chemical substance/The level of expressed mRNA in the absence of chemical substance (yeast gene YIL072W): 3.1 | The level of expressed mRNA in the presence of chemical substance/The level of expressed mRNA in the absence of chemical substance (yeast gene YIL143C): 0.8 | The level of expressed mRNA in the presence of chemical substance/The level of expressed mRNA in the absence of chemical substance (yeast gene YIL153W): 1.4 | The level of expressed mRNA in the presence of chemical substance/The level of expressed mRNA in the absence of chemical substance (yeast gene YIR002C): 1.1 | The level of expressed mRNA in the presence of chemical substance/The level of expressed mRNA in the absence of chemical substance (yeast gene YJL026W): 2.4 | The level of expressed mRNA in the presence of chemical substance/The level of expressed mRNA in the absence of chemical substance (yeast gene YJR046W): 1.2 | The level of expressed mRNA in the presence of chemical substance/The level of expressed mRNA in the absence of chemical substance (yeast gene YJR052W): 1.0 | The level of expressed mRNA in the presence of chemical substance/The level of expressed mRNA in the absence of chemical substance (yeast gene YKL145W): 1.4 | The level of expressed mRNA in the presence of chemical substance/The level of expressed mRNA in the absence of chemical substance (yeast gene YLR103C): 1.5 | The level of expressed mRNA in the presence of chemical substance/The level of expressed mRNA in the absence of chemical substance (yeast gene YLR233C): 0.9 | The level of expressed mRNA in the presence of chemical substance/The level of expressed mRNA in the absence of chemical substance (yeast gene YLR288C): 0.8 | The level of expressed mRNA in the presence of chemical substance/The level of expressed mRNA in the absence of chemical substance (yeast gene YML032C): 0.9 | The level of expressed mRNA in the presence of chemical substance/The level of expressed mRNA in the absence of chemical substance (yeast gene YML058W): 1.2 | The level of expressed mRNA in the presence of chemical substance/The level of expressed mRNA in the absence of chemical substance (yeast gene YMR035W): 1.7 | The level of expressed mRNA in the presence of chemical substance/The level of expressed mRNA in the absence of chemical substance (yeast gene YMR072W): 1.0 | The level of expressed mRNA in the presence of chemical substance/The level of expressed mRNA in the absence of chemical substance (yeast gene YMR096W): 1.7 | The level of expressed mRNA in the presence of chemical substance/The level of expressed mRNA in the absence of chemical substance (yeast gene YMR284W): 1.0 | The level of expressed mRNA in the presence of chemical substance/The level of expressed mRNA in the absence of chemical substance (yeast gene YNL213C): 11.6 | The level of expressed mRNA in the presence of chemical substance/The level of expressed mRNA in the absence of chemical substance (yeast gene YNL250W): 2.2 | The level of expressed mRNA in the presence of chemical substance/The level of expressed mRNA in the absence of chemical substance (yeast gene YNL261W): 1.3 | The level of expressed mRNA in the presence of chemical substance/The level of expressed mRNA in the absence of chemical substance (yeast gene YNL312W): 1.0 | The level of expressed mRNA in the presence of chemical substance/The level of expressed mRNA in the absence of chemical substance (yeast gene YOL043C): 0.9 | The level of expressed mRNA in the presence of chemical substance/The level of expressed mRNA in the absence of chemical substance (yeast gene YOR005C): 1.8 | The level of expressed mRNA in the presence of chemical substance/The level of expressed mRNA in the absence of chemical substance (yeast gene YOR386W): 0.8 | The level of expressed mRNA in the presence of chemical substance/The level of expressed mRNA in the absence of chemical substance (yeast gene YPL022W): 0.8 | The level of expressed mRNA in the presence of chemical substance/The level of expressed mRNA in the absence of chemical substance (yeast gene YPL164C): 0.7 | The level of expressed mRNA in the presence of chemical substance/The level of expressed mRNA in the absence of chemical substance (yeast gene YPL194W): 1.4 | The level of expressed mRNA in the presence of chemical substance/The level of expressed mRNA in the absence of chemical substance (yeast gene YPR025C): 0.8
